Source: US12492173B2, “Herbicidal substituted N-tetrazolyl aryl carboxamides” (Bayer Aktiengesellschaft, priority 2019, dated 2025)

Assays:
Format in all cases: in vivo
Lolium rigidum = experiment: Post-emergence herbicidal action, LOLRI; conditions: dosage 80 g/ha
Description: (§1) [table] 2. Post-Emergence Herbicidal Action Against Harmful Plants Seeds of monocotyledonous and dicotyledonous weed and crop plants are laid out in sandy loam soil in wood-fiber pots, covered with soil and cultivated in a greenhouse under good growth conditions. 2 to 3 weeks after sowing, the test plants are treated at the one-leaf stage. The compounds of the invention, formulated in the form of wettable powders (WP) or as emulsion concentrates (EC), are then sprayed onto the green parts of the plants in the form of an aqueous suspension or emulsion at a water application rate equating to 600 to 800 l/ha, with addition of 0.2% wetting agent. After the test plants have been left to stand in the greenhouse under optimal growth conditions for about 3 weeks, the action of the preparations is assessed visually in comparison to untreated controls (herbicidal action in percent (%): 100% activity=the plants have died, 0% activity=like control plants). […] The tables below illustrate, in an exemplary manner, the post-emergence herbicidal action of the compounds according to the invention, the herbicidal activity being stated in percent. In the experiments that follow, herbicidal action of numerous inventive compounds and the known compounds that are structurally closest from D1 (WO 2012/028579 A1) and D2 (WO 2018/202535 A1) were compared under the above-specified conditions by the pre-emergence and post-emergence method. The example numbers given in the tables relate to the compounds disclosed in the respective documents. In addition to the compounds disclosed in D1 and D2, the following compounds V-1 to V-14 that are encompassed by D1 or D2 but are not compounds specified therein were used in the comparative experiments: • V-1: 2-(methylsulfanyl)-3-(methylsulfinyl)-N-(1-methyl-1H-tetrazol-5-yl)-4-(trifluoromethyl)benzamide • V-2: 2-(methylsulfanyl)-3-(methylsulfonyl)-N-(1-methyl-1H-tetrazol-5-yl)-4-(trifluoromethyl)benzamide • V-3: 2,3-bis(ethylsulfanyl)-N-(1-methyl-1H-tetrazol-5-yl)-4-(trifluoromethyl)benzamide • V-4: 2-chloro-3-(ethylsulfanyl)-N-(1-methyl-1H-tetrazol-5-yl)-4-(trifluoromethyl)benzamide • V-5: 2-chloro-4-iodo-3-(methylsulfanyl)-N-(1-methyl-1H-tetrazol-5-yl)benzamide • V-6: 2-chloro-4-iodo-3-(methylsulfinyl)-N-(1-methyl-1H-tetrazol-5-yl)benzamide • V-7: 2-chloro-4-iodo-3-(methylsulfonyl)-N-(1-methyl-1H-tetrazol-5-yl)benzamide • V-8: 2-bromo-3-(methylsulfanyl)-N-(1-methyl-1H-tetrazol-5-yl)-4-(trifluoromethyl)benzamide • V-9: 2-bromo-3-(methylsulfinyl)-N-(1-methyl-1H-tetrazol-5-yl)-4-(trifluoromethyl)benzamide • V-10: 2-bromo-3-(methylsulfonyl)-N-(1-methyl-1H-tetrazol-5-yl)-4-(trifluoromethyl)benzamide • V-11: 2-bromo-3-(ethylsulfanyl)-N-(1-methyl-1H-tetrazol-5-yl)-4-(trifluoromethyl)benzamide • V-12: 2-bromo-3-(ethylsulfinyl)-N-(1-methyl-1H-tetrazol-5-yl)-4-(trifluoromethyl)benzamide • V-13: 2-bromo-3-(ethylsulfonyl)-N-(1-methyl-1-1H-tetrazol-5-yl)-4-(trifluoromethyl)benzamide • V-14: 2-cyclopropyl-3-(ethylsulfanyl)-N-(1-methyl-1H-tetrazol-5-yl)-4-(trifluoromethyl)benzamide Herbicidal Pre-Emergence Action: […]

Digitaria sanguinalis [1] = experiment: Post-emergence herbicidal action, DIGSA; parameters: key: % herbicidal action: 100 = plants died, 0 = like control
Description: as §1

Hordeum murinum [2] = experiment: Post-emergence herbicidal action, HORMU; parameters: key: % herbicidal action: 100 = plants died, 0 = like control; conditions: post-emergence, dosage 80 g/ha
Description: as §1

Hordeum murinum [3] = experiment: Pre-emergence herbicidal action, HORMU; conditions: dosage 320 g/ha, scored visually after 3 weeks vs untreated controls (100% = plants have died)
Outline: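 Greenhouse pre-emergence test: formulated compound (WP or EC) applied in water to the soil covering sown seeds, 600–800 l/ha, 0.2% wetting agent. Scored visually in percent at 3 weeks versus untreated plants.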

Digitaria sanguinalis [4] = experiment: Pre-emergence herbicidal action, DIGSA; conditions: dosage 320 g/ha, scored visually after 3 weeks vs untreated controls (100% = plants have died)
Text: 1. Pre-Emergence Herbicidal Action Against Harmful Plants Seeds of monocotyledonous and dicotyledonous weed plants and crop plants are laid out in sandy loam soil in wood-fiber pots and covered with soil. The compounds of the invention, formulated in the form of wettable powders (WP) or as emulsion concentrates (EC), are then applied to the surface of the covering soil in the form of an aqueous suspension or emulsion at a water application rate equating to 600 to 800 l/ha, with addition of 0.2% wetting agent. After the treatment, the pots are placed in a greenhouse and kept under good growth conditions for the trial plants. The damage to the test plants is scored visually after a test period of 3 weeks by comparison with untreated controls (herbicidal activity in percent (%): 100% activity=the plants have died, 0% activity=like control plants). […] The tables below illustrate, in an exemplary manner, the […] herbicidal action of the compounds according to the invention, the herbicidal activity being stated in percent. [table] In the experiments that follow, herbicidal action of numerous inventive compounds and the known compounds that are structurally closest from D1 (WO 2012/028579 A1) and D2 (WO 2018/202535 A1) were compared under the above-specified conditions by the pre-emergence and post-emergence method. The example numbers given in the tables relate to the compounds disclosed in the respective documents. In addition to the compounds disclosed in D1 and D2, the following compounds V-1 to V-14 that are encompassed by D1 or D2 but are not compounds specified therein were used in the comparative experiments: • V-1: 2-(methylsulfanyl)-3-(methylsulfinyl)-N-(1-methyl-1H-tetrazol-5-yl)-4-(trifluoromethyl)benzamide • V-2: 2-(methylsulfanyl)-3-(methylsulfonyl)-N-(1-methyl-1H-tetrazol-5-yl)-4-(trifluoromethyl)benzamide • V-3: 2,3-bis(ethylsulfanyl)-N-(1-methyl-1H-tetrazol-5-yl)-4-(trifluoromethyl)benzamide • V-4: 2-chloro-3-(ethylsulfanyl)-N-(1-methyl-1H-tetrazol-5-yl)-4-(trifluoromethyl)benzamide • V-5: 2-chloro-4-iodo-3-(methylsulfanyl)-N-(1-methyl-1H-tetrazol-5-yl)benzamide • V-6: 2-chloro-4-iodo-3-(methylsulfinyl)-N-(1-methyl-1H-tetrazol-5-yl)benzamide • V-7: 2-chloro-4-iodo-3-(methylsulfonyl)-N-(1-methyl-1H-tetrazol-5-yl)benzamide • V-8: 2-bromo-3-(methylsulfanyl)-N-(1-methyl-1H-tetrazol-5-yl)-4-(trifluoromethyl)benzamide • V-9: 2-bromo-3-(methylsulfinyl)-N-(1-methyl-1H-tetrazol-5-yl)-4-(trifluoromethyl)benzamide • V-10: 2-bromo-3-(methylsulfonyl)-N-(1-methyl-1H-tetrazol-5-yl)-4-(trifluoromethyl)benzamide • V-11: 2-bromo-3-(ethylsulfanyl)-N-(1-methyl-1H-tetrazol-5-yl)-4-(trifluoromethyl)benzamide • V-12: 2-bromo-3-(ethylsulfinyl)-N-(1-methyl-1H-tetrazol-5-yl)-4-(trifluoromethyl)benzamide • V-13: 2-bromo-3-(ethylsulfonyl)-N-(1-methyl-1-1H-tetrazol-5-yl)-4-(trifluoromethyl)benzamide • V-14: 2-cyclopropyl-3-(ethylsulfanyl)-N-(1-methyl-1H-tetrazol-5-yl)-4-(trifluoromethyl)benzamide Herbicidal Pre-Emergence Action: […]

Cyperus esculentus = experiment: Post-emergence herbicidal action, CYPES; parameters: key: % herbicidal action vs untreated; 100 = plants died, 0 = like control; conditions: post-emergence, dosage 80 g/ha
Outline: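 Greenhouse post-emergence test: weeds sown in sandy loam were sprayed once at one leaf, 2 to 3 weeks from sowing, with aqueous WP or EC preparations carrying 0.2% wetting agent. Effect is scored visually after about 3 weeks.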

SMILES	herbicidal action LOLRI (Lolium rigidum)	herbicidal action DIGSA (Digitaria sanguinalis [1]; post-emergence, dosage 80 g/ha)	herbicidal action HORMU (Hordeum murinum [2])	herbicidal activity HORMU (Hordeum murinum [3])	herbicidal activity DIGSA (Digitaria sanguinalis [4])	herbicidal action CYPES (Cyperus esculentus)	herbicidal action DIGSA (Digitaria sanguinalis [1]; Dosage 80 g/ha)
CC[S+]([O-])Cc1c(C(F)(F)F)ccc(C(=O)Nc2nnnn2C)c1Cl (racemic) [Example 1-300]	90%	100%	90%	100%	100%		
Cn1nnnc1NC(=O)c1ccc(C(F)(F)F)c(C[S+]([O-])C2CC2)c1Cl (racemic) [Example 1-303]	90%		100%	100%		80%	
COCC[S+]([O-])Cc1c(C(F)(F)F)ccc(C(=O)Nc2nnnn2C)c1Cl (racemic) [Example 1-306]				90%	100%		100
Cn1nnnc1NC(=O)c1ccc(C(F)(F)F)c(C[S+]([O-])CC(F)(F)F)c1Cl (racemic) [Example 1-312]		100%	80%	100%	100%		
Cn1nnnc1NC(=O)c1ccc(I)c(C[S+](C)[O-])c1Cl (racemic) [Example 1-363]	80%	100%	90%	100%	100%		
CSc1c(C(=O)Nc2nnnn2C)ccc(C(F)(F)F)c1C[S+](C)[O-] (centres unmarked) [Example 1-162]	80%		90%	80%		80%	
CSc1c(C(=O)Nc2nnnn2C)ccc(C(F)F)c1C[S+](C)[O-] (centres unmarked) [Example 1-171]				80%	100%		100
Cn1nnnc1NC(=O)c1ccc(C(F)(F)F)c(CSC2CC2)c1Cl [Example 1-302]	90%		90%	100%		80%	
Cn1nnnc1NC(=O)c1ccc(C(F)(F)F)c(CS(=O)(=O)C2CC2)c1Cl [Example 1-304]	80%		80%	100%		90%	
COCCSCc1c(C(F)(F)F)ccc(C(=O)Nc2nnnn2C)c1Cl [Example 1-305]	100%		90%	100%		90%	
Cn1nnnc1NC(=O)c1ccc(C(F)(F)F)c(CSCC2CC2)c1Cl [Example 1-314]	90%		100%	100%		80%	
